In one test the test system is DR2 Tg mice. The test can be described thus: Actively induced anti-MPO associated glomerulonephritis (peptide immunization). The conditions noted are these: for glomerular disease: day 28. In kind it is in vivo, mouse. As to the method: DR2 Tg mice (Ooi et al., Proc. Natl. Acad. Sci. USA 109:E2615 (2012); Rich et al., Eur. J. Immunol. 34:1251 (2004)) were immunized s.c. with 3×100 μg of peptide antigen (OVA323-339, n=4 or MPO442-460, n=10) first in FCA then FIA on days 0, 7 and 14. Mice were culled on day 28.
For indirect immunofluorescence, ethanol fixed thioglycolate induced peritoneal neutrophils were cytospun onto slides, purified serum IgG (1 mg/ml) was applied for 20 minutes then anti-mouse IgG Ab was detected using FITC conjugated anti-mouse IgG Ab (Silenus) (Ooi et al., Proc. Natl. Acad. Sci. USA 109:E2615 (2012); Lock, J. Clin. Pathol. 47:4 (1994)). Albuminuria was assessed by ELISA (Bethyl Laboratories) and haematuria assessed by urine test strips (Combur) from a 24 hour urine sample. Blood urea nitrogen (BUN) was measured using standard laboratory methods on serum collected at the end of experiment. Glomerular abnormalities assessed, on […], PAS stained, formalin fixed, paraffin embedded sections (≧50 glomeruli/mouse), were thickening of the capillary walls and mesangial hypercellularity (Ooi et al., J. Am. Soc. Nephrol. 20:980 (2009)). Total glomerular cell nuclei were enumerated (≧20 glomeruli/mouse). Glomerular neutrophils were detected by immunoperoxidase staining of 6 μm thick, periodate lysine paraformaldehyde fixed, frozen kidney sections using anti-Gr-1 antibodies (RB6-8C5).

Test [1] deals with anti-MPO antibodies of immunized DR2 Tg mice. In words: Epitope excision MS of IgG from immunized DR2 Tg mice with recombinant mouse MPO. In kind it is binding. The settings on record: DR2 Tg mice immunized with MPO aa442-460. On the procedure: (§1) Mass spectrometry analysis of ANCA-negative IgG and mouse IgG samples were conducted as above. With the exception of protein substrate, immobilized ANCA-negative IgG were exposed to whole leukocyte lysate preparation from a healthy donor and mouse IgG to recombinant mouse MPO (R&D Systems).
As HLA-MHC II help shape the B and T cell repertoires, and consequently the response to foreign and self-antigens, we wanted to define the epitope specificity of the anti-MPO autoantibodies that could be induced experimentally using DR2 Tg mice. In this way, we could assess development of the anti-MPO antibody response after immunization of a single epitope in the context of a human MHC II. IgG from sera of immunized mice was profiled for anti-MPO epitope specificity using epitope excision MS. DR2 Tg mice developed antibodies targeting the human B cell epitope aa447-459 which is within a conserved region of both murine and human MPO. Unpredictably, immunized DR2 Tg mice initiated a polyclonal response producing autoantibodies against the entire MPO molecule. The epitope profile was astonishingly similar to that of the MPO-ANCA human profile (Table 6), indicative of the critical nature of this epitope.

Test [2] deals with IgG from ANCA-negative AAV patients. In words: Epitope excision MS of ANCA-negative IgG with whole leukocyte lysate. In kind it is binding, human. The conditions noted are these: total Ig from ANCA-negative AAV patients. On the procedure: as §1
A variation of epitope excision MS for MPO-ANCA was adapted into a ‘discovery’ tool for identifying unknown autoantigens in ANCA-negative AAV, which presents clinically as vasculitis although with a negative serology for MPO-ANCA and PR3-ANCA. ANCA-negative AAV patients were identified by retrospective review of the medical records, with criteria of histological evidence of vasculitis and negative serological test results from the UNC Hospital clinical laboratory. As an additional measure, sera samples selected for analysis were retested for ANCA reactivity by the laboratory of Dr. John Niles, Massachusetts General Hospital, Boston, USA and were confirmed to be ANCA-negative. Protein lysate of total peripheral blood leukocytes were probed for antigen/s that were reactive with purified total Ig from ANCA-negative AAV patients' sera (FIG. 5A). […] MPO-ANCA specific for this epitope were detected by ELISA using isolated Ig from 8/10 UNC AAV patients and from 6/11 NL AAV patients (Table 2).

Test [3] has as its system MPO-ANCA. In words: Epitope excision MALDI-TOF/TOF MS of patient and healthy Ig with native MPO. The test is classed as binding. The arrangement: key: HC: Healthy control; Active disease; Remission. The conditions noted are these: human Ig. From the text:
Total immunoglobulin (IgG) was purified from sera using protein A/G PLUS-Agarose Reagent according to commercial protocol (Santa Cruz Biotechnology). Purified IgG was immobilized on CNBr-activated Sepharose 4B (GE Healthcare) in compact reaction columns (CRC, USB Corporation) and exposed to native MPO protein (MPO, Elastin Products Co, Inc) followed by digestion with sequencing grade TPCK-treated trypsin (Worthington). MPO-peptides remaining bound to IgG after digestion were eluted with 0.1% trifluoro acetic acid and analyzed on a 4800 Plus Matrix-Assisted Laser Desorption Ionization Time of Flight Mass Spectrometry (MALDI TOF/TOF MS/MS) in conjunction with ProteinPilot software (AB SCIEX).
To identify epitopes of low titer autoantibodies, ^18O labeling (Mirza et al., J. Proteome Res. 7:3042 (2008)) was used to differentiate between the signal and the noise in the MS and MSMS spectra using the 4 Da shifts between the corresponding spectra of labeled and non-labeled peptides. Mass spectrometry analysis for epitopes recognized by MPO autoantibodies from healthy individuals, and for detection of low ANCA titers in remission samples required the use of isotope H2^18O to increase sensitivity (Cambridge Isotope Laboratories). Samples from healthy individuals (n=10) and MPO-ANCA patients in clinical remission (n=35) were processed in the presence of H2^18O. Incorporation of H2^18O on the carboxyl terminus of each proteolytic fragment of MPO during tryptic digestion, trypsin buffer was made with the isotope H2^18O as a diluent.
MPO-ANCA positive patients (n=45) from the University of North Carolina cohort (UNC) were analyzed in the initial studies. Demographics of the cohort (Table 2) indicate a predominantly Caucasian group. Approximately 40% are diagnosed with microscopic polyangiitis (MPA), 40% with renal-limited disease and 20% are diagnosed with granulomatosis with polyangiitis (GPA). To compare epitope specificities related to disease activity, longitudinal samples were analyzed to include active disease (n=52) and remission (n=35) from the UNC cohort (Tables 3 and 4). Ten healthy subjects were included in the analyses. Purified immunoglobulin (Ig) from sera samples was subjected to analysis by epitope excision MALDI-TOF/TOF mass spectrometry (depicted in FIG. 3A) to identify epitope profiles of autoantibodies reactive with MPO. In order to epitope map low titer anti-MPO antibodies from healthy subjects and from patients in disease remission, an approach was designed using the ^16O-to-^18O exchange technique, an adaptation of a proteomics-based quantification method (Mirza et al., J. Proteome Res. 7:3042 (2008)). Incorporation of H2^18O on the carboxyl termini of proteolytic fragments produces a 4 Da mass shift in the MS spectra, decipherable from background noise. MPO epitopes unique to Ig from patients with active disease were designated ‘exclusive to active disease’; epitopes identified in remission samples were designated ‘persistent during remission’; and those present in samples from healthy subjects were designated asymptomatic or ‘natural’.

For test [4], the system named is MPO-ANCA. The test can be described thus: Peptide ELISA with total IgG (Chapel Hill and Groningen). The test is classed as binding, human. The conditions noted are these: for MPO-ANCA specific for the epitope detected by ELISA, patients positive/tested: isolated Ig. On the procedure:
A total of 195 IgG samples were tested by native MPO or peptide ELISA. Samples included those from healthy controls (n=59), active disease (n=80) and remission patients (n=56). Total IgG was added to wells (2 μg/well) precoated with 1-2 μg peptide (UNC-CH peptide synthesis core). Goat anti-human with alkaline phosphatase conjugate secondary antibody specific to IgG (H+L) (Millipore, Billerica, Mass.) (1:10,000) was added and detected using 1-Step PNPP substrate (Thermo Scientific) and read at λ=405 nm after 30 min. Identical peptides were used in ELISAs at both locations; all other substrates used to test NL cohort samples by ELISAs were prepared in Groningen. Total IgG (1:500˜2 mg/well) was added to precoated wells blocked with 1% BSA. Secondary antibody, goat anti-human conjugated with alkaline phosphatase (A5403; Sigma-Aldrich) (1:5000), was added and detected using p-nitrophenyl-phosphate disodium substrate.
A general note: ELISA stands for enzyme-linked immunosorbent assay.

The subject of test [5] is anti-MPO^447-459 autoantibody. The test can be described thus: Epitope masking ELISA with ceruloplasmin and its fragments. In kind it is binding, human. From the text: Serum proteins that bound immobilized MPO peptide aa447-459 were eluted and sequenced for identification. […] Sequenced on a 4800 MALDI TOF-TOF, the protein was identified as ceruloplasmin (CP), and confirmed by western blot analysis probed with a rabbit anti-human anti-CP polyclonal antibody (Abeam). Native CP was purchased (Enzo Life Science) and proteolytically digested in vitro by plasmin (Haemtech).
(§2) To isolate the putative serum factor, immobilized MPO aa447-459 peptide was used as bait to fish-out host proteins with binding capacity. […] However, the CP bound to aa447-459 was primarily a 50 kD protein on sodium dodecyl sulfate polyacrylamide gel electrophoresis (SDS-PAGE), while full length CP is 151 kD (FIG. 6D). An anti-ceruloplasmin western blot confirmed the fragment to be a portion of CP (FIG. 6E). To test the role of proteolytic cleavage in generating the blocking factor, a plasmin-generated fragment of CP (Kingston et al., Proc. Natl. Acad. Sci. USA 74:5377 (1977)) was tested for epitope masking capability (FIG. 6F).

Test [6] deals with MPO-ANCA IgG (polyclonal). In words: Effect of CP on binding of polyclonal MPO-ANCA Ig to native MPO (ELISA). The arrangement: species or system human. The conditions noted are these: MPO-ANCA IgG from four patients.
Description: as §2

The mark [7] stands for this setting: compared with OVA aa323-339 immunized mice.

As to “LYQEARKIVGAMVQIITYR (LYQEARKIVGAMVQITTYR; listed as Homo sapiens) [aa442-460]”, the “induction of MPO-reactive antibodies” value with DR2 Tg mice (after 28 days) was “MPO-reactive antibodies after 28 days”. In the test on DR2 Tg mice (setting [7]), the BUN entry was “increased BUN values”, the albuminuria result is reported as “developed albuminuria” and the hematuria result is listed as “hematuria”. Moreover, the glomerular disease result in the test with DR2 Tg mice is listed as “mild glomerular proliferation”.

As to “RKIVGAMVQIITY (listed as Homo sapiens) [aa447-459]”, the “Epitopes found in immunized mice” value in test [1] is recorded as “RKIVGAMVQIITY”. In addition, the “peptide eluted from ANCA-negative Ig (MS)” value in test [2] is “A sole peptide was eluted and identified”. In addition, the “Found in samples: Healthy control, Active disease, or Remission, (HC, A, R)” value with MPO-ANCA [3] (Table 1) and in the test with MPO-ANCA [3] (Table 6) was “A” throughout. In addition, the glomerular disease result in the test on DR2 Tg mice is “develop glomerulonephritis”. In the test with MPO-ANCA [4] (ANCA-negative patients, UNC (n=4) and NL (n=5), longitudinal), the “level of ELISA reactivity versus disease activity” value is “corresponded well with disease activity, declining to low levels as patients entered disease remission”. Besides, the “share of MPO-ANCA positive AAV patients with active disease in whom the epitope was identified” value in the test with MPO-ANCA [4] (MPO-ANCA positive AAV, active disease) was around 50%. For the same molecule, the “reactivity by ELISA, share of patient samples” value in the test on MPO-ANCA [4] (NL population, active disease) was found to be 52.2%; in the test with MPO-ANCA [4] (UNC MPO-ANCA patient samples, active disease) it was 42.9%. Also, the “ELISA reactivity in clinical remission” value in the test with MPO-ANCA [4] (UNC and NL cohorts, remission samples) is listed as “Reactivity declined in clinical remission”. Besides, the “MPO-ANCA specific for the epitope detected by ELISA, patients positive/tested” value in the test on MPO-ANCA [4] (ANCA-negative NL AAV patients) was 6/11; in the test with MPO-ANCA [4] (ANCA-negative UNC AAV patients), 8/10.

Consider thrombin [reference compound], for which the “generation of a functional (blocking) ceruloplasmin fragment by serum proteases” value in test [5] is on record as “did not”.

With urokinase [reference compound], the “generation of a functional (blocking) ceruloplasmin fragment by serum proteases” value in test [5] is “produced a functional fragment”.

B1: digested CP: ceruloplasmin digested with plasmin in vitro to produce a 50 kD fragment (protein)
chain: SVPPSASHVAPTETFTYEWTVPKEVGPTNADPVCLAKMYYSAVEPTKDIFTGLIGPMKICKKGSLHANGRQKDVDKEFYLFPTVFDENESLLLEDNIRMFTTAPDQVDKEDEDFQESNKMHSMNGFMYGNQPGLTMCKGDSVVWYLFSAGNEADVHGIYFSGNTYLWRGERRDTANLFPQTSLTLHMWPDTEGTFNVECLTTDHYTGGMKQKYTVNQCRRQSEDSTFYLGERTYYIAAVEVEWDYSPQREWEKELHHLQEQNVSNAFLDKGEFYIGSKYKKVVYRQYTDSTFRVPVERKAEEEHLGILGPQLHADVGDKVKIIFKNMATRPYSIHAHGVQTESSTVTPTLPGETLTYVWKIPERSGAGTEDSACIPWAYYSTVDQVKDLYSGLIGPLIVCRRPYL
B1: the “effect on binding of polyclonal MPO-ANCA Ig to native MPO” value in test [6] is reported as “did not affect the overall binding”. Besides, the “decrease of anti-MPO^447-459 autoantibody reactivity” value in test [5] (ELISA, n=8) is listed as 30-50%.

Values taken from patent US20150017665A1, “Peptides and Methods for Detecting MPO-ANCA” (The University of North Carolina at Chapel Hill, priority 2012, published 2015).
